Measurements taken from ChEMBL document CHEMBL1649570, “Pharmacokinetics and ex vivo pharmacodynamic antimalarial activity of dihydroartemisinin-piperaquine in patients with uncomplicated falciparum malaria in Vietnam” (Antimicrob Agents Chemother, 2009).
In brackets after ≈: the same amount, converted by molar mass. Blank lines part the entries; values can stand above or below the compound they belong to. Activity calls are given as the source filed them. The rule behind the calls is not given here.

Assays:
[1] = test system: Plasmodium falciparum; assay: Antiplasmodial activity against Plasmodium falciparum D6 isolated from po dosed patient with malaria; format: functional
[2] = test system: Homo sapiens; assay: AUC (0 to infinity) in Plasmodium falciparum-infected patient at 40 mg/kg, po; format: ADME, organism-based, Plasma; parameters: time infinity, dose 40 mg/kg, route oral; details: in vivo
[3] = test system: Plasmodium falciparum; assay: Antiplasmodial activity against Plasmodium falciparum K1; format: functional
[4] = Cmax in Plasmodium falciparum-infected patient at 40 mg/kg, po; format: ADME, organism-based; parameters: dose 40 mg/kg, route oral; details: human, in vivo
[5] = test system: Plasmodium falciparum; assay: Antiplasmodial activity against Plasmodium falciparum K1 assessed as inhibition of [3H]hypoxanthine incorporation by beta counting; format: functional, organism-based
[6] = Half life in Plasmodium falciparum-infected patient at 40 mg/kg, po; format: ADME, organism-based; parameters: dose 40 mg/kg, route oral; details: human, in vivo
[7] = test system: Homo sapiens; assay: Apparent oral clearance in Plasmodium falciparum-infected patient at 40 mg/kg, po; format: ADME, organism-based; parameters: dose 40 mg/kg, route oral; details: in vivo
[8] = test system: Plasmodium falciparum; assay: Antiplasmodial activity against Plasmodium falciparum D6; format: functional
[9] = test system: Plasmodium falciparum; assay: Antiplasmodial activity against Plasmodium falciparum K1 isolated from po dosed patient with malaria; format: functional
[10] = AUC in Plasmodium falciparum-infected patient at 40 mg/kg, po; format: ADME, organism-based; parameters: dose 40 mg/kg, route oral; details: human, plasma
[11] = Tmax in Plasmodium falciparum-infected patient at 40 mg/kg, po; format: ADME, organism-based; parameters: dose 40 mg/kg, route oral; details: human, in vivo
[12] = Tmax in Plasmodium falciparum-infected patient at 320 mg/kg, po; format: ADME, organism-based; parameters: dose 320 mg/kg, route oral; details: human, in vivo
[13] = test system: Plasmodium falciparum; assay: Antiplasmodial activity against Plasmodium falciparum K1 isolated from patient with malaria at 25 ng/ml after 28 days; format: functional, organism-based
[14] = test system: Plasmodium falciparum; assay: Antiplasmodial activity against Plasmodium falciparum D6 isolated from patient with malaria at 25 ng/ml after 28 days; format: functional, organism-based
[15] = test system: Plasmodium falciparum; assay: Antiplasmodial activity against Plasmodium falciparum K1 isolated from po dosed patient with malaria after 7 days; format: functional, organism-based
[16] = Cmax in Plasmodium falciparum-infected patient at 320 mg/kg, po; format: ADME, organism-based; parameters: dose 320 mg/kg, route oral; details: human, in vivo
[17] = Half life in Plasmodium falciparum-infected patient at 320 mg/kg, po; format: ADME, organism-based; parameters: dose 320 mg/kg, route oral; details: human, in vivo
[18] = AUC in Plasmodium falciparum-infected patient at 320 mg/kg, po; format: ADME, organism-based; parameters: dose 320 mg/kg, route oral; details: human, plasma
[19] = AUC (0 to infinity) in Plasmodium falciparum-infected patient at 320 mg/kg, po; format: ADME, organism-based; parameters: time infinity, dose 320 mg/kg, route oral; details: human, plasma
[20] = Plasma concentration in Plasmodium falciparum-infected patient at 320 mg/kg, po after 28 days; format: ADME, organism-based; parameters: dose 320 mg/kg, route oral; details: human
[21] = test system: Plasmodium falciparum; assay: Antiplasmodial activity against Plasmodium falciparum D6 isolated from po dosed patient with malaria after 7 days; format: functional, organism-based

SMILES: C[C@H]1[C@@H](O)O[C@@H]2O[C@@]3(C)CC[C@H]4[C@H](C)CC[C@@H]1[C@@]24OO3 [ARTENIMOL]
ID90 [1]: 0.639 µg/mL (≈ 2.25 µM)
AUC [2]: 1949 ng·h/mL
IC90 [3]: 4.85 nM
Cmax [4]: 698 ng/mL
IC50 [5]: 2.57 nM
half-life [6]: 0.85 h
CL/F [7]: 19.8 mL/min/kg
IC90 [8]: 4.5 nM
ID90 [9]: 0.513 µg/mL (≈ 1.8 µM)
AUC [10]: 1950 ng·h/mL
Tmax [11]: 2.8 h

Tmax [12]: 5.7 h
IC90 [3]: 122 nM
IC50 [5]: 82.1 nM
Cmax [16]: 568 ng/mL
half-life [17]: 427 h
AUC [18]: 44400 ng·h/mL
AUC(0-inf) [19]: 56400 ng·h/mL
concentration at 672 h [20]: 25 ng/mL
IC90 [8]: 67.5 nM
SMILES: Clc1ccc2c(N3CCN(CCCN4CCN(c5ccnc6cc(Cl)ccc56)CC4)CC3)ccnc2c1 [PIPERAQUINE]
Activity [13]: inactive
Activity [14]: inactive
Cp [15]: 25 ng/mL
Cp [21]: 25 ng/mL
